Assay [1] has as its target T1, human dopamine D2 receptor (Homo sapiens, UniProt P14416).
T1 construct: accorded to it of human dopamine D2 receptor (NM1-000795) registered on NCBI completely; expressed in transfected cells; membrane homogenates
Put plainly: Stimulating activities on human dopamine D2 receptor, [35S]GTPγS binding to hD2R#7 cell membrane homogenates. In kind it is biochemical. The following applies: [35S]GTPγS binding, membrane homogenates of HEK293 cells stably expressing human D2 receptor; mean, n=2; read-out: EC50. How it is done: Identification Test of Stimulating Activities on Human Dopamine D2 Receptor
4) Preparation of Membrane Homogenates from hD2R#7 Cells
(2) Preparation of Membrane Homogenates from hD2R#7 Cells
The cells, which were grown to confluence in 150 mm dishes (IWAKI), were harvested with isotonic buffer (50 mM Tris (Sigma), 2 mM ethylenediamine-tetraacetic acid (Invitrogen), and 125 mM sodium chloride (Wako Pure Chemicals), pH 7.4) and centrifuged at 1880×g and 4° C. for 10 minutes, and the cell pellets were then suspended in isotonic buffer. After being subjected to one cycle of freezing and thawing, the cells were centrifuged at 1880×g and 4° C. for 10 minutes, and the cell pellets were suspended in isotonic buffer. The cells were centrifuged at 1880×g and 4° C. for 10 minutes, and the cell pellets were suspended in isotonic buffer and homogenate buffer (10 mM sodium bicarbonate (Nacalai) and 5 mM ethylenediamine-tetraacetic acid, pH 7.5). The volume ratio of isotonic-to-homogenate buffer was 2. The cells were sonicated and centrifuged at 1880×g and 4° C. for 10 minutes, and the supernatants were ultracentrifuged at 80000×g and 4° C. for 30 minutes. The final cell pellets were suspended in homogenate buffer containing protease inhibitor cocktail (Nacalai) and stored at −80° C. until use. The protein concentration was determined using BCA Protein Assay Kit (Pierce) in accordance with the manufacturer's instructions.
5) Determination of Stimulating Activities of Human Dopamine D2 Receptor
The stimulating activities of human dopamine D2 receptor was determined by measuring the binding potential of [^35S]-guanosine 5′-[gamma-thio]triphosphate ([^35S]GTPγS, PerkinElmer) according to the method described by Newman-Tancredi A. et al. (Naunyn-Schmiedeberg's Arch Pharmacol, 1999, vol. 359, pp. 447-453) with a minor modification. Test compounds and dopamine hydrochloride (Fluka) as positive control were dissolved in dimethyl sulfoxide (CARLBIOCHEM), resulting in 30 mM. The both compounds were diluted with assay buffer (50 mM Tris, 100 mM sodium chloride, 5 mM magnesium chloride (Nacalai), 1 mM ethylenediamine-tetraacetic acid, 1 mM dithiothreitol (Wako Pure Chemicals), 10 μM guanosine diphosphate (Wako Pure Chemicals) and 0.5% bovine serum albumin (Sigma), pH 7.4) to a final concentration of 100 pM (only test compounds), 1 nM, 10 nM, 100 nM, 1 μM, 10 μM and 100 μM (only dopamine hydrochloride). The above membrane homogenates and [^35S]GTPγS were diluted with assay buffer to a final concentration of 0.06 mg/mL and 0.6 nM, respectively. The serial diluted compounds (50 μL), the diluted membrane homogenates (50 μL) and the diluted [^35S]GTPγS (50 μL) were mixed on multi-screen 96-well plate (Millipore) and shaken lightly at room temperature for 60 minutes. The reaction was terminated by vacuum filtration with three times washes of ice-cold wash buffer (50 mM Tris, 100 mM sodium chloride, 5 mM magnesium chloride, and 1 mM ethylenediamine-tetraacetic acid, pH 7.4). After drying the bottoms of the plate at 60° C., MicroScinti-40 (PerkinElmer) (30 μL) was added in the plate. The tops of the plate were sealed by TopSeal-A (PerkinElmer), and the radioactivity was determined in a TopCount NXT (registered mark) (PerkinElmer) after shaking lightly for 5-10 minutes. The data was analyzed by nonlinear regression and sigmoidal dose-response curve fitting using GraphPad PRISM 4.0 (GraphPad Software), and values of EC50 (concentration of the compound producing half the maximal effect of the compound) were calculated. The data was presented as mean value (n=2).

Assay [2] addresses T2, human serotonin 5-HT2B receptor (Homo sapiens, UniProt P41595).
T2 construct: expressed in transfected cells; host or cells: HEK293, transient transfection (Lipofectamine 2000)
Put plainly: Stimulating activities on human serotonin 5-HT2B receptor, intracellular calcium in forced expression HEK293 cells. The format is cell-based. The method, then:
Identification Test of Stimulating Activities on Human Serotonin 5-HT2B Receptor
The PCR was performed using forward primer depicted as sequence ID No. 4, reverse primer depicted as sequence ID No. 5 and KOD-Plus-Ver.2 (TOYOBO) as template of human brain hippocampus cDNA (Clontech). The PCR product was inserted into a plasmid (pcDNA3.1/V5-His-Topo (registered mark)). The PCR product-inserted plasmid was transformed in E. coli (One Shot TOP10 Chemically Competent). That E. coli was incubated in LB agar medium contained 50 μg/mL ampicillin for a day. A selected colony was incubated in LB medium contained 50 μg/mL ampicillin and PCR product-inserted plasmid was purified with QIAprep Spin Miniprep Kit (QIAGEN).
Mostly confluent HEK293 cells were washed with PBS, followed by exfoliation with 0.05% trypsin-EDTA and the cells were suspended in D-MEM liquid medium (phenol red-free, low glucose, pyruvic acid were contained) containing fetal bovine serum (final concentration: 10%) and GlutaMax (registered mark)I (final concentration: 2 mM). The suspension was scattered at 5×10^4 cells/100 L/well on poly-D-lysine-coated 96-well microplate (BD BioCoat (registered mark)). The scattered cells were cultured in 5% CO2 incubator at 37° C. Human serotonin 5-HT2B receptor expression plasmid was transfected in that cells according to the procedure seeing below.
Human serotonin 5-HT2B receptor expression plasmid and Lipofectamine (registered mark) 2000 (Invitrogen) were diluted to 0.008 g/L and 0.016 g/L each other with OPTI-MEM (registered mark)I Reduced-Serum Medium and incubated at room temperature. After incubation, the human serotonin 5-HT2B receptor exoression plasmid-diluted liquid and Lipofectamine (registered mark) 2000-diluted liquid were mixed at an equal volume and incubated at room temperature to form a complex. The complex was dispensed at 50 μL/well on the cells prepared above. The cells were incubated in 5% CO2 incubator at 37° C. for 2 days. After incubation, the cells were used as human serotonin 5-HT2B receptor forced expression cells for measurement of intracellular calcium concentration.
3) Determination of Stimulating Activities of Human Serotonin 5-HT2B Receptor
The stimulating activities of human serotonin 5-HT2B receptor was determined by measuring of intracellular calcium concentration. The 30 mM dimethyl sulfoxide (DMSO) solution contained test compounds or serotonin hydrochloride (Sigma) as positive control, was diluted with assay buffer ((HBSS), 20 mM HEPES, 1.3 mM calcium chloride, 0.5 mM magnesium chloride and 0.4 mM magnesium sulfate were contained, pH7.4) to appropriate concentration.
The forced expression cells were washed with assay buffer, and 100 μL/well of fluorescent calcium indicator (Fluo-4 NW Calcium Assay Kit) was added and incubated in 5% CO2 incubator at 37° C. After incubation, 50 μL/well of each test compound was added, and the concentration of intracellular calcium was measured as fluorescent signal with FlexStation (registered mark) II (Molecular Devices). The data was analyzed by nonlinear regression and sigmoidal dose-response curve fitting using GraphPad PRISM 4.0, and values of EC50 (concentration of the compound producing half the maximal effect of the compound) were calculated. The data was presented as mean value (n=2).
On the technique in general: Calcium assays in cells follow changes in intracellular calcium, usually with a dye or a luminescent sensor.

Where [3] appears, read: intracellular calcium (Fluo-4), HEK293 cells transiently expressing human 5-HT2B receptor, mean, n=2, read-out: EC50.

As a reminder, the EC50 is the concentration that produces a half-maximal response.

Where two headings read alike, the source gives them in different places.

T1 sequence (P14416 whole entry): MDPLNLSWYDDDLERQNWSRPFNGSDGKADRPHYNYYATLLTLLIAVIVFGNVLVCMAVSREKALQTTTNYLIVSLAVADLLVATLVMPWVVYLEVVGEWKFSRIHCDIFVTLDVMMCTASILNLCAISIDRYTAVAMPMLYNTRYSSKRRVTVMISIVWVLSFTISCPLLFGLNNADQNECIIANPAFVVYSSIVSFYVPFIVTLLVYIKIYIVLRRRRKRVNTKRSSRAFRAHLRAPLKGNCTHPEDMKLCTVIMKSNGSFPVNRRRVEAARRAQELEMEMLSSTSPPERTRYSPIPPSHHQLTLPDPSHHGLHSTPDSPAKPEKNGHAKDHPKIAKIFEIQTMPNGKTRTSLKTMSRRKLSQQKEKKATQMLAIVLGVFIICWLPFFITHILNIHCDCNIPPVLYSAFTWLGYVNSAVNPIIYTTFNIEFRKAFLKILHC
T2 sequence (P41595 whole entry): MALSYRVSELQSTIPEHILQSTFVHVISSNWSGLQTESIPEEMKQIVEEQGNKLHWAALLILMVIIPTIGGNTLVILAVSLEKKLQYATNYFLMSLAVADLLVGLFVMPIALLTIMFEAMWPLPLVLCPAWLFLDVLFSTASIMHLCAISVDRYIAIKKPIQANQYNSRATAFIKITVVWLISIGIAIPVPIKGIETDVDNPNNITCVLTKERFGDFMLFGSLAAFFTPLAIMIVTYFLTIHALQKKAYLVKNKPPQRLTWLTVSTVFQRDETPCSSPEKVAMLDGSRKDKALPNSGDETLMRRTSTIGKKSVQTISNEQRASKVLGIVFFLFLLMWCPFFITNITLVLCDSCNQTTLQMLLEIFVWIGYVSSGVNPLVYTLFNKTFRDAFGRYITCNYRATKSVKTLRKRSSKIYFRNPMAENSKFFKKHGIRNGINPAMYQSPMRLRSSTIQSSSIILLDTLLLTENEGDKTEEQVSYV

`CCCCN(C(=O)NCCN(C)C)C(=O)[C@@H]1C[C@@H]2Cc3c(sc(N)c3C#N)C[C@H]2N(C)C1` (relative stereo) [1-24, 1-{[(4aR*,6R*,8aR*)-2-amino-3-cyano-8-methyl-4H,4aH,5H,6H,7H,8H,8aH,9H-thieno[3,2-g]quinolin-6-yl]carbonyl}-1-butyl-3-[2-(dimethylamino)ethyl]urea]: the EC50 in assay [1] was 17 nM; in assay [2] (setting [3]), > 10000 nM.

With `CC(C)CCN(C(=O)NCCN(C)C)C(=O)[C@@H]1C[C@@H]2Cc3c(sc(N)c3C#N)C[C@H]2N(C)C1` (relative stereo) [1-43, 1-{[(4aR*,6R*,8aR*)-2-amino-3-cyano-8-methyl-4H,4aH,5H,6H,7H,8H,8aH,9H-thieno[3,2-g]quinolin-6-yl]carbonyl}-3-[2-(dimethylamino)ethyl]-1-(3-methylbutyl)urea], the EC50 in assay [1] is 32 nM; in assay [2] (setting [3]) it was > 10000 nM.

For `CCCCN(C(=O)NCCN1CCCCC1)C(=O)[C@@H]1C[C@@H]2Cc3c(sc(N)c3C#N)C[C@H]2N(C)C1` (relative stereo) [1-46, 1-{[(4aR*,6R*,8aR*)-2-amino-3-cyano-8-methyl-4H,4aH,5H,6H,7H,8H,8aH,9H-thieno[3,2-g]quinolin-6-yl]carbonyl}-1-butyl-3-[2-(piperidin-1-yl)ethyl]urea], the EC50 in assay [1] was 10 nM; in assay [2] (setting [3]), > 10000 nM.

With `CCCN(C(=O)NCCN(C)C)C(=O)[C@@H]1C[C@@H]2Cc3c(sc(N)c3C#N)C[C@H]2N(C)C1` [1-1, 1-{[(4aR,6R,8aR)-2-amino-3-cyano-8-methyl-4H,4aH,5H, 6H,7H,8H,8aH,9H-thieno[3,2-g]quinolin-6-yl]carbonyl}-3-[2-(dimethylamino)ethyl]-1-propylurea], the EC50 in assay [1] is 6 nM; in assay [2] (setting [3]), > 10000 nM.

Regarding `CCCCN(C(=O)NCCN(CC)CC)C(=O)[C@@H]1C[C@@H]2Cc3c(sc(N)c3C#N)C[C@H]2N(C)C1` [1-3, 1-{[(4aR,6R,8aR)-2-amino-3-cyano-8-methyl-4H,4aH,5H,6H,7H,8H,8aH,9H-thieno[3,2-g]quinolin-6-yl]carbonyl}-1-butyl-3-[2-(diethylamino)ethyl]urea], the EC50 in assay [1] was 7 nM; in assay [2] (setting [3]), > 10000 nM.

On to `CCN(C(=O)NCC(C)(C)CN(C)C)C(=O)[C@@H]1C[C@@H]2Cc3c(sc(N)c3C#N)C[C@H]2N(C)C1` [1-4, 1-{[(4aR,6R,8aR)-2-amino-3-cyano-8-methyl-4H,4aH,5H,6H,7H,8H,8aH,9H-thieno[3,2-g]quinolin-6-yl]carbonyl}-3-[3-(dimethylamino)-2,2-dimethylpropyl]-1-ethlylurea], for which the figures for the EC50 in assay [1] and in assay [2] (setting [3]) were 3 nM and > 10000 nM, respectively.

`CCN(C(=O)N[C@@H](C)CN(C)C)C(=O)[C@@H]1C[C@@H]2Cc3c(sc(N)c3C#N)C[C@H]2N(C)C1` [1-57, 1-{[(4aR,6R,8aR)-2-amino-3-cyano-8-methyl-4H,4aH,5H,6H, 7H,8H,8aH,9H-thieno[3,2-g]quinolin-6-yl]carbonyl}-3-[(2S)-1-(dimethylamino)propan-2-yl]-1-ethylurea]: the figures for the EC50 in assay [1] and in assay [2] (setting [3]) were 5 nM and > 10000 nM, respectively.

Turning to `CCN(C(=O)NCCN(C)C)C(=O)[C@@H]1C[C@@H]2Cc3c(sc(N)c3C#N)C[C@H]2N(C)C1` [1-108, 1-{[(4aR,6R,8aR)-2-amino-3-cyano-8-methyl-4H,4aH,5H,6H,7H,8H,8aH,9H-thieno[3,2-g]quinolin-6-yl]carbonyl}-3-[2-(dimethylamino)ethyl]-1-ethylurea], the results for the EC50 in assay [1] and in assay [2] (setting [3]) were 6 nM and > 10000 nM, respectively.

Consider `CCCN(CCC)CCc1cccc2c1CC(=O)N2` [Ropinirole, ropinirole, reference compound], for which the figures for the EC50 in assay [1] and in assay [2] were 892 nM and 2590 nM, respectively.

The values are drawn from patent publication US9138434B2, “Octahydrothienoquinoline derivative, pharmaceutical composition comprising derivative, and use of these” (KISSEI PHARMACEUTICAL CO., LTD., priority 2011, dated 2015).
